Measured values reported in ChEMBL document CHEMBL4507276 (2021).

What was measured:
[1] = target: T1, 5-hydroxytryptamine receptor 1A (Homo sapiens) (UniProt P08908); test: 5HT1A/H Cerep selectivity data (BI); settings: Compound concentration 20.0 uM
T1 sequence (whole entry): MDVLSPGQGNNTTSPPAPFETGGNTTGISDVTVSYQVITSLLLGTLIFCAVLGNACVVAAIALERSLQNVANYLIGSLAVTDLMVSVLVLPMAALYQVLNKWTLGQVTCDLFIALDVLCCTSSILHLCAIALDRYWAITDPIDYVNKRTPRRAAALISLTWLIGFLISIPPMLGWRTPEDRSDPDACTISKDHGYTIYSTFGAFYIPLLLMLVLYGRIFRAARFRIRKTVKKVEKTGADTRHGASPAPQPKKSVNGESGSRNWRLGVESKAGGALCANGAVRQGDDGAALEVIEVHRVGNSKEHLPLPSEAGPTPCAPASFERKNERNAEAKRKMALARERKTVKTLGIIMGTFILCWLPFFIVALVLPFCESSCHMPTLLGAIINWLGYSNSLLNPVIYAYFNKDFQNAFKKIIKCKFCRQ

[2] = target: Delta-type opioid receptor (Homo sapiens) (UniProt P41143); test: DELTA2/H Cerep selectivity data (BI); settings: Compound concentration 20.0 uM
Chain of Delta-type opioid receptor (Homo sapiens) (P41143 whole entry): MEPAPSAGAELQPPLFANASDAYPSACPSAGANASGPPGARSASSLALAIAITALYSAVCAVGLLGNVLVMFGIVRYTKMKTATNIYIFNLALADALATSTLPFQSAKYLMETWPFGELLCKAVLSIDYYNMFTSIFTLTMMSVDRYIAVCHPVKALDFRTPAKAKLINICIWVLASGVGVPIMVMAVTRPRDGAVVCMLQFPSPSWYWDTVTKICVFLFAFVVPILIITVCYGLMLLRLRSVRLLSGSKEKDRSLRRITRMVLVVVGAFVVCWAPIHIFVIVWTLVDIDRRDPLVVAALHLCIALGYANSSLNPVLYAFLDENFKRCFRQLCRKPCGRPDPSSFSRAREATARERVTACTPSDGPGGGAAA

[3] = target: Insulin receptor (Homo sapiens) (UniProt P06213); test: IRK(INSR)_CE Cerep selectivity data (BI); settings: Compound concentration 20.0 uM
Chain of Insulin receptor (Homo sapiens) (P06213 28-758 limits assumed): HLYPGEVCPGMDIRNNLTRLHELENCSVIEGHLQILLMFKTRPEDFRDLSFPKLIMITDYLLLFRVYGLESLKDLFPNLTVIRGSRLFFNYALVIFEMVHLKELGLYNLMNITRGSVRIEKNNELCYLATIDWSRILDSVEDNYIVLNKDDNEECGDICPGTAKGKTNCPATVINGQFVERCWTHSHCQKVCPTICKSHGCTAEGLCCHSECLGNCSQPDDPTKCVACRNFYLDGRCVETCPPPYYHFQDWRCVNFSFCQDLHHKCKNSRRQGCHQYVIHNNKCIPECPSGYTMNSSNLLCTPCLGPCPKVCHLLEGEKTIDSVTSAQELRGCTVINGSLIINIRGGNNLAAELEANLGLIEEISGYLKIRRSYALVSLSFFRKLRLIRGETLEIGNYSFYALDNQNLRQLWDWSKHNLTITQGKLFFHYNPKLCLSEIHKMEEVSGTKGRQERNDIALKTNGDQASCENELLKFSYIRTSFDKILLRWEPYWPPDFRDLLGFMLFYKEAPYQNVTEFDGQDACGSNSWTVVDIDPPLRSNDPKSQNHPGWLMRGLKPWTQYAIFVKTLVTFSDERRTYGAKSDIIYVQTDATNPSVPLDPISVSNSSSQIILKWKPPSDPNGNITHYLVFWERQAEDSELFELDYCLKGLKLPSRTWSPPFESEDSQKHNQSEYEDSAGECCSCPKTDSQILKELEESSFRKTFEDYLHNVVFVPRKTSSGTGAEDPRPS
Chain of Insulin receptor (Homo sapiens) (P06213 763-1382 limits assumed): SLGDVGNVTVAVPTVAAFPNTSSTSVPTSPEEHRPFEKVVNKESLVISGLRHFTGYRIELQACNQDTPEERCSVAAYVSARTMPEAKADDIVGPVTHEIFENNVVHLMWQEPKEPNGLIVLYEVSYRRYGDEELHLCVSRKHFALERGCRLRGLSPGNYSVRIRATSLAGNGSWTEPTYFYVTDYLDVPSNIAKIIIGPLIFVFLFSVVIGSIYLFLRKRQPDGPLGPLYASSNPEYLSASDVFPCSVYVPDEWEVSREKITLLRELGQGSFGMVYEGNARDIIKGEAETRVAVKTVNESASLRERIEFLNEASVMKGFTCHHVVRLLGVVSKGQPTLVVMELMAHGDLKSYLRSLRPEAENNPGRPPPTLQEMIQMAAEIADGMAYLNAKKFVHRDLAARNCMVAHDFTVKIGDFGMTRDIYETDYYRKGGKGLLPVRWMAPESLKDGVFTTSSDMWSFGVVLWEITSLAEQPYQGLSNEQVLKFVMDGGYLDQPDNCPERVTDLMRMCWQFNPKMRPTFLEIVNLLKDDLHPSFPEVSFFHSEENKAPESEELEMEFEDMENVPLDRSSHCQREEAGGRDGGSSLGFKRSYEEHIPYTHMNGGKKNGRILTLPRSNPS

[4] = target: Vasopressin V2 receptor (Homo sapiens) (UniProt P30518); test: V2/H Cerep selectivity data (BI); settings: Compound concentration 20.0 uM
Chain of Vasopressin V2 receptor (Homo sapiens) (P30518 whole entry): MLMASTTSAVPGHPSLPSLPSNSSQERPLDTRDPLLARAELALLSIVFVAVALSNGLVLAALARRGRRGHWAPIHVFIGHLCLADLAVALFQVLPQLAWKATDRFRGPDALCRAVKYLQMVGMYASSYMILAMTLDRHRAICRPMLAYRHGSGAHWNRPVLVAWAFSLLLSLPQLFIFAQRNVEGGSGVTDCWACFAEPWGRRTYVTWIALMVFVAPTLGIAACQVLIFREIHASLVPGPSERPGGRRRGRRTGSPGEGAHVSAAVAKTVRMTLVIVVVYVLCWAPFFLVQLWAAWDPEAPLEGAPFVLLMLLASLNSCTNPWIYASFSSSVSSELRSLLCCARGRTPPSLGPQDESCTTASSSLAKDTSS

[5] = target: Melatonin receptor type 1A (Homo sapiens) (UniProt P48039); test: MT1/H Eurofins-Panlabs selectivity data (BI); settings: Compound concentration 10.0 uM
Chain of Melatonin receptor type 1A (Homo sapiens) (P48039 whole entry): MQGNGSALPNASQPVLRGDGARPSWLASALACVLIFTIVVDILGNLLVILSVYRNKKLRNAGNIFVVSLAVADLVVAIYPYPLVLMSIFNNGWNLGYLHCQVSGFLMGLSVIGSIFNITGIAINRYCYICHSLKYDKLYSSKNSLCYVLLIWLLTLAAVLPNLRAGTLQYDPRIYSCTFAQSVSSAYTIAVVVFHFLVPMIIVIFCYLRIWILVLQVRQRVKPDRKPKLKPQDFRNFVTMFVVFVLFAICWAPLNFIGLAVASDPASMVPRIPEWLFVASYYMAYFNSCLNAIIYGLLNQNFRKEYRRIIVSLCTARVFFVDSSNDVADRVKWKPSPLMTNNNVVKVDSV

[6] = target: Fibroblast growth factor receptor 3 (Homo sapiens) (UniProt P22607); test: FGFR3 Invitrogen selectivity data (BI); settings: Compound concentration 3.0 uM
Chain of Fibroblast growth factor receptor 3 (Homo sapiens) (P22607 23-806 limits assumed): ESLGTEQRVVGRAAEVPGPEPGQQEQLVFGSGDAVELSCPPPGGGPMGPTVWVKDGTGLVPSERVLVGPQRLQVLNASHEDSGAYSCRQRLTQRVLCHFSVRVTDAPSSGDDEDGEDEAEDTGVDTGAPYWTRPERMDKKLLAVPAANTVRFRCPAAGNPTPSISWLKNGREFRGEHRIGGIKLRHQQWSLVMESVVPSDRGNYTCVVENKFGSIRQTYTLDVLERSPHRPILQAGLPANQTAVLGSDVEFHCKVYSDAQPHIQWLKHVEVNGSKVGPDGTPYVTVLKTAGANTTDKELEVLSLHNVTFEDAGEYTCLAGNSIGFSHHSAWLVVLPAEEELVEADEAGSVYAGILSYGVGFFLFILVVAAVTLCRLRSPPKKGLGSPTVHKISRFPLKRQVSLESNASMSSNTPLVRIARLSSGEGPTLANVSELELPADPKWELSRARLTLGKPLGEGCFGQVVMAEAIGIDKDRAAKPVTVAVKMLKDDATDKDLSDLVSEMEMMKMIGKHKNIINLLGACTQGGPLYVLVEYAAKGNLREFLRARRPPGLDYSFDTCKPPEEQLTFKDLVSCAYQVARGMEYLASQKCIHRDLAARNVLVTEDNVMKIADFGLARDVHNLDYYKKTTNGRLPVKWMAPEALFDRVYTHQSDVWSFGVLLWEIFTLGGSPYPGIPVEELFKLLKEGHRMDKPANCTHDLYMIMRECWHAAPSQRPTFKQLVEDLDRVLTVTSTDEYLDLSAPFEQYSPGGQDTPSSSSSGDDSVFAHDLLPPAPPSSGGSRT

[7] = target: Tyrosine-protein kinase Lyn (Homo sapiens) (UniProt P07948); test: LYN A Invitrogen selectivity data (BI); settings: Compound concentration 3.0 uM
Chain of Tyrosine-protein kinase Lyn (Homo sapiens) (P07948 2-512 limits assumed): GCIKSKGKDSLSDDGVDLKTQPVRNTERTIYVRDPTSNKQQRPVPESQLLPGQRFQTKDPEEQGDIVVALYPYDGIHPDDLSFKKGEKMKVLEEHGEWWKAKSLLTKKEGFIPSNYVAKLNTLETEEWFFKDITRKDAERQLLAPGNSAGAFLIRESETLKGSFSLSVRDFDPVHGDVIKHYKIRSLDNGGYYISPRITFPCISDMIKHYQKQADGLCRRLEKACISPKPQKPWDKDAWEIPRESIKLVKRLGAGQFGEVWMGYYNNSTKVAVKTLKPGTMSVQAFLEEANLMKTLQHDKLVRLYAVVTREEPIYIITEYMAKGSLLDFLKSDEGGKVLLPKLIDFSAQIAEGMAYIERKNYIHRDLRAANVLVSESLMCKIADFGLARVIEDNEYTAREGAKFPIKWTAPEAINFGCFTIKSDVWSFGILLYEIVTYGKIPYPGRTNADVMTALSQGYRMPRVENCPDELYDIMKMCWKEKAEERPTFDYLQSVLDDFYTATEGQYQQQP

[8] = target: T2, Mitogen-activated protein kinase kinase kinase 3 (Homo sapiens) (UniProt Q99759); test: MAP3K3 Invitrogen selectivity data (BI); settings: Compound concentration 3.0 uM
T2 sequence (whole entry): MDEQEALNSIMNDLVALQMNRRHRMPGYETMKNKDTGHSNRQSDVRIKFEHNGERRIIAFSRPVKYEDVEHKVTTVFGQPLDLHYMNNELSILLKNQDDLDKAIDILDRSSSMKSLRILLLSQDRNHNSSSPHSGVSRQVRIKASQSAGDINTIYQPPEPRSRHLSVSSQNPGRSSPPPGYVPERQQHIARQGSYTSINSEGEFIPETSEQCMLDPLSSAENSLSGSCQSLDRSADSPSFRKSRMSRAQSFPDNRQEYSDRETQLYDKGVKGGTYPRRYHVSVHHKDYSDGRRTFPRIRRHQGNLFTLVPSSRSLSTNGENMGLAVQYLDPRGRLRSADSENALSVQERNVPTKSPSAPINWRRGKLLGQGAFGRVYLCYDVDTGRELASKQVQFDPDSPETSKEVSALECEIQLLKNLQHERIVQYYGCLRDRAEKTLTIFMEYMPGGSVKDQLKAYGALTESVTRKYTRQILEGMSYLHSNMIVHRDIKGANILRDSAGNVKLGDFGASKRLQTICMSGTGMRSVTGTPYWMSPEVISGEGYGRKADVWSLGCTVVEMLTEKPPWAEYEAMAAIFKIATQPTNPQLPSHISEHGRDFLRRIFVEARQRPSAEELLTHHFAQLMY

[9] = target: Mitogen-activated protein kinase 14 (Homo sapiens) (UniProt Q16539); test: MAPK14P38A Invitrogen selectivity data (BI); settings: Compound concentration 3.0 uM
Chain of Mitogen-activated protein kinase 14 (Homo sapiens) (Q16539 whole entry): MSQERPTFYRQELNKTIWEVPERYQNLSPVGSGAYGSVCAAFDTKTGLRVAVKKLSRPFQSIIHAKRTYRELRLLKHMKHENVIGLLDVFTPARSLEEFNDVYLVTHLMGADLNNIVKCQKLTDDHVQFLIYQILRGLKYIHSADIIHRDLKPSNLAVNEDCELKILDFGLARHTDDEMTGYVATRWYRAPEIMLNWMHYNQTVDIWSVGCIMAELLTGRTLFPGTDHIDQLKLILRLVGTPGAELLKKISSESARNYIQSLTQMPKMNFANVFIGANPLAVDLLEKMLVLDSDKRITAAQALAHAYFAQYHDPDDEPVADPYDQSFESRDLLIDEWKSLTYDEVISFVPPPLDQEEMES

[10] = target: T3, Tyrosine-protein kinase Mer (Homo sapiens) (UniProt Q12866); test: MERTK Invitrogen selectivity data (BI); settings: Compound concentration 3.0 uM
T3 sequence (whole entry): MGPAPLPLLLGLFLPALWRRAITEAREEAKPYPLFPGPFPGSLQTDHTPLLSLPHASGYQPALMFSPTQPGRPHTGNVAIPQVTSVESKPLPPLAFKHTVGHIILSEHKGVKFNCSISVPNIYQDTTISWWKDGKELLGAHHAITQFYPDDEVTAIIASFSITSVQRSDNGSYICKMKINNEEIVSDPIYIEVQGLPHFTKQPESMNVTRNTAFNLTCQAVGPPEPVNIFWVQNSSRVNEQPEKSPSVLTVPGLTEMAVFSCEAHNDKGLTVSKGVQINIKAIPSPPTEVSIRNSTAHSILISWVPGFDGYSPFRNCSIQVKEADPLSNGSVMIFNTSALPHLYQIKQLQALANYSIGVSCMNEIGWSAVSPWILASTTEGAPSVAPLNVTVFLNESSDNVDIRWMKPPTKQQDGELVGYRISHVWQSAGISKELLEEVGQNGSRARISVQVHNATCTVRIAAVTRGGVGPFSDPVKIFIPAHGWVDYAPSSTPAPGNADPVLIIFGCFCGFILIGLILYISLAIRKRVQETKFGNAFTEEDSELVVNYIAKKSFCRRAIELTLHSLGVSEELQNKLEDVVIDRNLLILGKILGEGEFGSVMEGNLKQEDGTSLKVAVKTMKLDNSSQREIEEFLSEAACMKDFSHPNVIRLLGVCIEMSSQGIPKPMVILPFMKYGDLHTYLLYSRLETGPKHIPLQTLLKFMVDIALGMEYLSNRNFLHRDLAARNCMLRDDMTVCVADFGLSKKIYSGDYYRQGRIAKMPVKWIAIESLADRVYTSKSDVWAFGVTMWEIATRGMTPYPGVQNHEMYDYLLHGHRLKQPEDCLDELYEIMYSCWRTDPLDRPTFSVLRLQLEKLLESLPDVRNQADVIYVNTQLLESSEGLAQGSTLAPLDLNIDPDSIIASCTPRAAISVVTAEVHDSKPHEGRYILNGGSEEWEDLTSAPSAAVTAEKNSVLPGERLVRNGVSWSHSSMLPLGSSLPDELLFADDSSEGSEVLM

[11] = target: Sphingosine kinase 2 (Homo sapiens) (UniProt Q9NRA0); test: SPHK2 Invitrogen selectivity data (BI); settings: Compound concentration 3.0 uM
Chain of Sphingosine kinase 2 (Homo sapiens) (Q9NRA0 whole entry): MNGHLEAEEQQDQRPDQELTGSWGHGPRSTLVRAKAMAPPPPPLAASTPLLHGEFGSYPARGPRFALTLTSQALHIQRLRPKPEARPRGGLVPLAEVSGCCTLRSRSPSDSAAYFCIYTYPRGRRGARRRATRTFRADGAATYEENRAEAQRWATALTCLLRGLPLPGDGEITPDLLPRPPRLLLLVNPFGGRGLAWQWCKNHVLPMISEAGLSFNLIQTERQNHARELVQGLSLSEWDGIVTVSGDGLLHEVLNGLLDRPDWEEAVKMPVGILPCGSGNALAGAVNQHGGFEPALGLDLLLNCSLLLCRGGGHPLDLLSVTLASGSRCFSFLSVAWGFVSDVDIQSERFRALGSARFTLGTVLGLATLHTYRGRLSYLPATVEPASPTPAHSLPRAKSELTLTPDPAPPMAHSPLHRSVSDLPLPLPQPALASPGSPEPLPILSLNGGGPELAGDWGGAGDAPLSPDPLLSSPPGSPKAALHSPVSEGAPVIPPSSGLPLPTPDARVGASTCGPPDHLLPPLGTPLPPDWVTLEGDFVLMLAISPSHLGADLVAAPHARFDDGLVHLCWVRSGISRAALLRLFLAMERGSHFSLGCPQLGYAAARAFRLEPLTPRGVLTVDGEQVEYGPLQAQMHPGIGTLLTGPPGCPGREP

[12] = target: T4, Serine/threonine-protein kinase 4 (Homo sapiens) (UniProt Q13043); test: STK4 Invitrogen selectivity data (BI); settings: Compound concentration 3.0 uM
T4 sequence (whole entry): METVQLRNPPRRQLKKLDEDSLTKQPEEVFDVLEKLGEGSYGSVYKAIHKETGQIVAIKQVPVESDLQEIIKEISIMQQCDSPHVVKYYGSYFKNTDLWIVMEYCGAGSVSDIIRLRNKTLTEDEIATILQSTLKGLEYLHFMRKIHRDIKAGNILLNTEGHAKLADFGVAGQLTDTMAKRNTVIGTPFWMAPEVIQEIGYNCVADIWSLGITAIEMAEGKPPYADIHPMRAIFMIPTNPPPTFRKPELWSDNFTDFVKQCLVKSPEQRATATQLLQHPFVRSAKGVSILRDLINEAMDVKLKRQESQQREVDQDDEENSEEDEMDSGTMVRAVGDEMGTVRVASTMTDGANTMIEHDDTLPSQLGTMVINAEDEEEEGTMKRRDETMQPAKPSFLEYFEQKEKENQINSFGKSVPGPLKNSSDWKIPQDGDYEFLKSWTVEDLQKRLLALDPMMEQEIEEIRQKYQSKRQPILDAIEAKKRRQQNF

Measured: residual activity

CN(C)C(=O)Cn1cc(-c2nc([C@@](C)(c3ccc(-c4cnc(N)nc4)cc3)C3CC3)no2)cn1 [BI 665915]
inactive: [1] 77% | [2] 100% | [3] 94% | [4] 102% | [5] 96% | [6] 95.5% | [7] 93% | [8] 101% | [9] 100% | [10] 94% | [11] 97% | [12] 99%
